Test results as given in ChEMBL document CHEMBL1649554, “Specific therapeutic schemes of omeprazole affect the orientation of Helicobacter pylori” (Antimicrob Agents Chemother, 2009).
The source made the active and inactive calls. The calls are words filed in the database; no cut-off is given here.

How the values were obtained:
[1] = system: Helicobacter pylori; experiment: (§1) Antibacterial activity against Helicobacter pylori SS1 infected in Mongolian gerbils assessed as bacterial disorientation in 15 to 25 um above the Juxtamucosal layer at 0.25 mg, ip administered as two doses in 8 hrs dosing interval measured after 90 mins post last dose; type: functional, organism-based
[2] = system: Helicobacter pylori; experiment: (§2) Antibacterial activity against Helicobacter pylori SS1 infected in Mongolian gerbils assessed as bacterial density in mucus in central mucus layer at 0.25 mg, ip administered as two doses of solvent in 24 hrs dosing interval measured after 90 mins post last dose (reference value: 90+/-60 bacteria per nl of mucus); type: functional
[3] = system: Helicobacter pylori; experiment: Antibacterial activity against Helicobacter pylori SS1 infected in Mongolian gerbils assessed as bacterial disorientation in luminal mucus layer at 0.25 mg, ip administered as two doses of solvent measured after 90 mins post last dose (reference value: 4560+/-400 bacteria per nl of mucus); type: functional, organism-based
[4] = system: Helicobacter pylori; experiment: as §2, with “ip followed by second dose” for “ip”, “as” for “as two doses of”; type: functional
[5] = system: Helicobacter pylori; experiment: as §2, with “15 to 25 um above the Juxtamucosal” for “central mucus”, “doses” for “doses of solvent”, “2280+/-430” for “90+/-60”; type: functional
[6] = system: Helicobacter pylori; experiment: (§3) Antibacterial activity against Helicobacter pylori SS1 infected in Mongolian gerbils assessed as bacterial density in mucus in 15 to 25 um above the Juxtamucosal layer at 100 uM, ip administered as single dose through dialysis measured after 90 mins post last dose; type: functional
[7] = system: Helicobacter pylori; experiment: as §3, with “layer at 20 uM, ip” for “layer at 100 uM, ip”, “last dose (reference value: 2280+/-430 bacteria per nl of mucus)” for “last dose”; type: functional
[8] = system: Helicobacter pylori; experiment: Antibacterial activity against Helicobacter pylori SS1 infected in Mongolian gerbils assessed as bacterial orientation in luminal mucus layer at 0.25 mg, ip administered as two subsequent doses in 8 hrs dosing interval; type: functional, organism-based
[9] = system: Helicobacter pylori; experiment: Antibacterial activity against Helicobacter pylori SS1 infected in Mongolian gerbils assessed as bacterial density in mucus in 0 to 15 um above the Juxtamucosal layer at 20 uM, ip administered as single dose through dialysis measured after 90 mins post last dose (reference value: 4560+/-400 bacteria per nl of mucus); type: functional
[10] = system: Helicobacter pylori; experiment: Antibacterial activity against Helicobacter pylori SS1 infected in Mongolian gerbils assessed as bacterial disorientation in 15 to 25 um above the Juxtamucosal layer at 20 uM, ip administered as single dose through dialysis measured after 90 mins post last dose; type: functional, organism-based
[11] = system: Helicobacter pylori; experiment: Antibacterial activity against Helicobacter pylori SS1 infected in Mongolian gerbils assessed as bacterial orientation in 15 to 25 um above the Juxtamucosal layer at 0.25 mg, ip administered as two subsequent doses in 8 hrs dosing interval; type: functional, organism-based
[12] = system: Helicobacter pylori; experiment: Antibacterial activity against Helicobacter pylori SS1 infected in Mongolian gerbils assessed as bacterial disorientation in 0 to 15 um above the Juxtamucosal layer at 20 uM, ip administered as single dose through dialysis measured after 90 mins post last dose; type: functional, organism-based
[13] = system: Helicobacter pylori; experiment: Antibacterial activity against Helicobacter pylori SS1 infected in Mongolian gerbils assessed as bacterial orientation in central layer at 0.25 mg, ip administered as two subsequent doses in 8 hrs dosing interval; type: functional, organism-based
[14] = system: Helicobacter pylori; experiment: as §2, with “0 to 15 um above the Juxtamucosal” for “central mucus”, “doses” for “doses of solvent”, “4560+/-400” for “90+/-60”; type: functional
[15] = system: Helicobacter pylori; experiment: as §2, with “0 to 15 um above the Juxtamucosal” for “central mucus”, “4560+/-400” for “90+/-60”; type: functional
[16] = system: Helicobacter pylori; experiment: Antibacterial activity against Helicobacter pylori SS1 infected in Mongolian gerbils assessed as decrease in bacterial density in mucus in 15 to 25 um above the Juxtamucosal layer at 0.25 mg, ip administered as single dose for 5 days measured after 90 mins post last dose; type: functional; set-up: scale not given: the % may be the effect or the level left
[17] = Cmax in Mongolian gerbils plasma; type: ADME, Meriones unguiculatus; details: gerbil
[18] = system: Helicobacter pylori; experiment: as §2, with “luminal” for “central”, “doses” for “doses of solvent”, “60+/-50” for “90+/-60”; type: functional
[19] = system: Helicobacter pylori; experiment: as §1, with “as bacterial density in mucus in 15” for “as bacterial disorientation in 15”, “last dose (reference value: 2280+/-430 bacteria per nl of mucus)” for “last dose”; type: functional
[20] = system: Helicobacter pylori; experiment: as §2, with “doses” for “doses of solvent”; type: functional
[21] = system: Helicobacter pylori; experiment: Antibacterial activity against Helicobacter pylori SS1 infected in Mongolian gerbils assessed as bacterial disorientation in luminal mucus layer at 0.25 mg, ip administered as two doses in 24 hrs dosing interval measured after 90 mins post last dose; type: functional, organism-based
[22] = system: Helicobacter pylori; experiment: Antibacterial activity against Helicobacter pylori SS1 infected in Mongolian gerbils assessed as bacterial orientation in 15 to 25 um above the Juxtamucosal layer at 35 ug/ml administered as single dose in 8 hrs dosing interval; type: functional, organism-based
[23] = system: Helicobacter pylori; experiment: (§4) Antibacterial activity against Helicobacter pylori SS1 infected in Mongolian gerbils assessed as bacterial disorientation in 0 to 15 um above the Juxtamucosal layer at 0.25 mg, ip followed by second dose administered as solvent in 24 hrs dosing interval measured after 90 mins post last dose; type: functional, organism-based
[24] = system: Helicobacter pylori; experiment: Antibacterial activity against Helicobacter pylori SS1 infected in Mongolian gerbils assessed as bacterial density in mucus in 0 to 15 um above the Juxtamucosal layer at 100 uM, ip administered as single dose through dialysis measured after 90 mins post last dose; type: functional
[25] = system: Helicobacter pylori; experiment: as §4, with “as bacterial density in mucus in 0” for “as bacterial disorientation in 0”, “last dose (reference value: 4560+/-400 bacteria per nl of mucus)” for “last dose”; type: functional
[26] = system: Helicobacter pylori; experiment: as §2, with “luminal” for “central”, “60+/-50” for “90+/-60”; type: functional
[27] = system: Helicobacter pylori; experiment: Antibacterial activity against Helicobacter pylori SS1 infected in Mongolian gerbils assessed as bacterial disorientation in central mucus layer at 0.25 mg, ip administered as two doses in 24 hrs dosing interval measured after 90 mins post last dose; type: functional, organism-based
[28] = system: Helicobacter pylori; experiment: as §2, with “luminal” for “central”, “doses” for “doses of solvent”, “8” for “24”, “60+/-50” for “90+/-60”; type: functional

Cmax [17]: 10 µM
SMILES: COc1ccc2[nH]c([S+]([O-])Cc3ncc(C)c(OC)c3C)nc2c1 (stereo not drawn) [OMEPRAZOLE]
Activity [1]: inactive
Activity [2]: 40 nL⁻¹
Activity [3]: inactive
Activity [4]: 140 nL⁻¹
Activity [5]: 2230 nL⁻¹
Activity [6]: 330 nL⁻¹
Activity [7]: 2010 nL⁻¹
Activity [8]: inactive
Activity [9]: 5050 nL⁻¹
Activity [10]: inactive
Activity [11]: inactive
Activity [12]: Active
Activity [13]: inactive
Activity [14]: 3310 nL⁻¹
Activity [15]: 5740 nL⁻¹
Activity [16]: 5%
Activity [18]: 120 nL⁻¹
Activity [19]: 1800 nL⁻¹
Activity [20]: 300 nL⁻¹
Activity [21]: inactive
Activity [22]: inactive
Activity [23]: Active
Activity [24]: 570 nL⁻¹
Activity [25]: 4790 nL⁻¹
Activity [26]: 70 nL⁻¹
Activity [27]: inactive
Activity [28]: 30 nL⁻¹
